In brackets after ≈: the same amount, converted by molar mass.
Key:
[1] = Antifungal activity against Fusarium sporotrichioides IMT 496 after 72 hrs by serial dilution method; assay type: functional
[2] = test system: Fusarium sporotrichioides; assay: Fungicidal activity against Fusarium sporotrichioides IMT 496 after 72 hrs; assay type: functional; conditions: IMT 496, 72 h
Talaromyces funiculosus [3] = assay: Fungicidal activity against Penicillium funiculosum ATCC 36839 after 72 hrs; assay type: functional; conditions: ATCC 36839, 72 h
Bacillus cereus [4] = assay: Antibacterial activity against Bacillus cereus clinical isolate after 24 hrs by microdilution method; assay type: functional
Aspergillus fumigatus [5] = assay: Antifungal activity against Aspergillus fumigatus plant isolate after 72 hrs by serial dilution method; assay type: functional
Penicillium ochrochloron [6] = assay: Antifungal activity against Penicillium ochrochloron ATCC 9112 after 72 hrs by serial dilution method; assay type: functional; conditions: ATCC 9112, 72 h
Aspergillus niger [7] = assay: Fungicidal activity against Aspergillus niger ATCC 6275 after 72 hrs; assay type: functional; conditions: ATCC 6275, 72 h
Salmonella typhimurium [8] = assay: Antibacterial activity against Salmonella Typhimurium ATCC 13311 after 24 hrs by microdilution method; assay type: functional, Salmonella enterica subsp. enterica serovar Typhimurium; conditions: Salmonella enterica, ATCC 13311, 24 h
Aspergillus fumigatus [9] = assay: Fungicidal activity against Aspergillus fumigatus plant isolate after 72 hrs; assay type: functional
Escherichia coli [10] = assay: Bactericidal activity against Escherichia coli ATCC 35210 after 24 hrs; assay type: functional; conditions: ATCC 35210, 24 h
Pseudomonas aeruginosa [11] = assay: Bactericidal activity against Pseudomonas aeruginosa ATCC 27853 after 24 hrs; assay type: functional; conditions: ATCC 27853, 24 h
Enterococcus faecalis [12] = assay: Bactericidal activity against Enterococcus faecalis isolate obtained from human after 24 hrs; assay type: functional
Staphylococcus aureus [13] = assay: Bactericidal activity against Staphylococcus aureus ATCC 6538 after 24 hrs; assay type: functional; conditions: ATCC 6538, 24 h
Micrococcus flavus [14] = assay: Antibacterial activity against Micrococcus flavus ATCC 10240 after 24 hrs by microdilution method; assay type: functional; conditions: ATCC 10240, 24 h
Talaromyces funiculosus [15] = assay: Antifungal activity against Penicillium funiculosum ATCC 36839 after 72 hrs by serial dilution method; assay type: functional; conditions: ATCC 36839, 72 h
Salmonella typhimurium [16] = assay: Bactericidal activity against Salmonella Typhimurium ATCC 13311 after 24 hrs; assay type: functional, Salmonella enterica subsp. enterica serovar Typhimurium; conditions: Salmonella enterica, ATCC 13311, 24 h
Aspergillus ochraceus [17] = assay: Antifungal activity against Aspergillus ochraceus ATCC 12066 after 72 hrs by serial dilution method; assay type: functional; conditions: ATCC 12066, 72 h
Trichoderma viride [18] = assay: Antifungal activity against Trichoderma viride IAM 5061 after 72 hrs by serial dilution method; assay type: functional; conditions: IAM 5061, 72 h
Pseudomonas aeruginosa [19] = assay: Antibacterial activity against Pseudomonas aeruginosa ATCC 27853 after 24 hrs by microdilution method; assay type: functional; conditions: ATCC 27853, 24 h
Staphylococcus aureus [20] = assay: Antibacterial activity against Staphylococcus aureus ATCC 6538 after 24 hrs by microdilution method; assay type: functional; conditions: ATCC 6538, 24 h
Penicillium ochrochloron [21] = assay: Fungicidal activity against Penicillium ochrochloron ATCC 9112 after 72 hrs; assay type: functional; conditions: ATCC 9112, 72 h
Aspergillus niger [22] = assay: Antifungal activity against Aspergillus niger ATCC 6275 after 72 hrs by serial dilution method; assay type: functional; conditions: ATCC 6275, 72 h
Listeria monocytogenes [23] = assay: Antibacterial activity against Listeria monocytogenes NCTC 7973 after 24 hrs by microdilution method; assay type: functional; conditions: NCTC 7973, 24 h
Micrococcus flavus [24] = assay: Bactericidal activity against Micrococcus flavus ATCC 10240 after 24 hrs; assay type: functional; conditions: ATCC 10240, 24 h
Aspergillus versicolor [25] = assay: Antifungal activity against Aspergillus versicolor ATCC 11730 after 72 hrs by serial dilution method; assay type: functional; conditions: ATCC 11730, 72 h
Escherichia coli [26] = assay: Antibacterial activity against Escherichia coli ATCC 35210 after 24 hrs by microdilution method; assay type: functional; conditions: ATCC 35210, 24 h
Aspergillus versicolor [27] = assay: Fungicidal activity against Aspergillus versicolor ATCC 11730 after 72 hrs; assay type: functional; conditions: ATCC 11730, 72 h
Bacillus cereus [28] = assay: Bactericidal activity against Bacillus cereus clinical isolate after 24 hrs; assay type: functional
Aspergillus ochraceus [29] = assay: Fungicidal activity against Aspergillus ochraceus ATCC 12066 after 72 hrs; assay type: functional; conditions: ATCC 12066, 72 h
Micrococcus flavus [30] = assay: Ratio of Ampicillin MIC to compound MIC for Micrococcus flavus ATCC 10240 after 24 hrs; assay type: functional
Trichoderma viride [31] = assay: Fungicidal activity against Trichoderma viride IAM 5061 after 72 hrs; assay type: functional; conditions: IAM 5061, 72 h
Listeria monocytogenes [32] = assay: Bactericidal activity against Listeria monocytogenes NCTC 7973 after 24 hrs; assay type: functional; conditions: NCTC 7973, 24 h
Enterococcus faecalis [33] = assay: Antibacterial activity against Enterococcus faecalis isolate obtained from human after 24 hrs by microdilution method; assay type: functional
Enterococcus faecalis [34] = assay: Ratio of Ampicillin MIC to compound MIC for Enterococcus faecalis after 24 hrs; assay type: functional

| SMILES | MIC (10'-2 umol/ml) [1] | MFC [2] | MFC (Talaromyces funiculosus [3]) | MIC (Bacillus cereus [4]) | MIC (Aspergillus fumigatus [5]) | MIC (Penicillium ochrochloron [6]) | MFC (Aspergillus niger [7]) | MIC (Salmonella typhimurium [8]) | MFC (Aspergillus fumigatus [9]) | MBC (Escherichia coli [10]) | MBC (Pseudomonas aeruginosa [11]) | MBC (Enterococcus faecalis [12]) | MBC (Staphylococcus aureus [13]) | MIC (Micrococcus flavus [14]) | MIC (Talaromyces funiculosus [15]) | MBC (Salmonella typhimurium [16]) | MIC (Aspergillus ochraceus [17]) | MIC (Trichoderma viride [18]) | MIC (Pseudomonas aeruginosa [19]) | MIC (Staphylococcus aureus [20]) | also measured |
| --- | --- | --- | --- | --- | --- | --- | --- | --- | --- | --- | --- | --- | --- | --- | --- | --- | --- | --- | --- | --- | --- |
| CNc1nc(C)c(C(=O)/C=C/c2ccc(OC)cc2)s1 | 34 | 513 µM (≈ 148 µg/mL) | 513 µM (≈ 148 µg/mL) | 290 µM (≈ 83.8 µg/mL) | 170 µM (≈ 49 µg/mL) | 340 µM (≈ 98 µg/mL) | 683 µM (≈ 197 µg/mL) | 342 µM (≈ 98.6 µg/mL) | 513 µM (≈ 148 µg/mL) | 513 µM (≈ 148 µg/mL) | 513 µM (≈ 148 µg/mL) | 171 µM (≈ 49.3 µg/mL) | 342 µM (≈ 98.6 µg/mL) | 85.4 µM (≈ 24.6 µg/mL) | 340 µM (≈ 98 µg/mL) | 513 µM (≈ 148 µg/mL) | 340 µM (≈ 98 µg/mL) | 170 µM (≈ 49 µg/mL) | 342 µM (≈ 98.6 µg/mL) | 290 µM (≈ 83.8 µg/mL) | MFC (Penicillium ochrochloron [21]): 513 µM (≈ 148 µg/mL); MIC (Aspergillus niger [22]): 340 µM (≈ 98 µg/mL); MIC (Listeria monocytogenes [23]): 342 µM (≈ 98.6 µg/mL); MBC (Micrococcus flavus [24]): 171 µM (≈ 49.3 µg/mL); MIC (Aspergillus versicolor [25]): 170 µM (≈ 49 µg/mL); MIC (Escherichia coli [26]): 342 µM (≈ 98.6 µg/mL); MFC (Aspergillus versicolor [27]): 513 µM (≈ 148 µg/mL); MBC (Bacillus cereus [28]): 342 µM (≈ 98.6 µg/mL); MFC (Aspergillus ochraceus [29]): 513 µM (≈ 148 µg/mL); Ratio (Micrococcus flavus [30]): 3; MFC (Trichoderma viride [31]): 513 µM (≈ 148 µg/mL); MBC (Listeria monocytogenes [32]): 513 µM (≈ 148 µg/mL); MIC (Enterococcus faecalis [33]): 171 µM (≈ 49.3 µg/mL) |
| CNc1nc(C)c(C(=O)/C=C/c2ccccc2Cl)s1 | 15.3 | 459 µM (≈ 134 µg/mL) | 612 µM (≈ 179 µg/mL) | 229 µM (≈ 67.1 µg/mL) | 306 µM (≈ 89.5 µg/mL) | 306 µM (≈ 89.5 µg/mL) | 612 µM (≈ 179 µg/mL) | 306 µM (≈ 89.5 µg/mL) | 612 µM (≈ 179 µg/mL) | 306 µM (≈ 89.5 µg/mL) | 306 µM (≈ 89.5 µg/mL) | 153 µM (≈ 44.8 µg/mL) | 459 µM (≈ 134 µg/mL) | 229 µM (≈ 67.1 µg/mL) | 306 µM (≈ 89.5 µg/mL) | 459 µM (≈ 134 µg/mL) | 306 µM (≈ 89.5 µg/mL) | 153 µM (≈ 44.8 µg/mL) | 260 µM (≈ 76.1 µg/mL) | 306 µM (≈ 89.5 µg/mL) | MFC (Penicillium ochrochloron [21]): 459 µM (≈ 134 µg/mL); MIC (Aspergillus niger [22]): 306 µM (≈ 89.5 µg/mL); MIC (Listeria monocytogenes [23]): 306 µM (≈ 89.5 µg/mL); MBC (Micrococcus flavus [24]): 260 µM (≈ 76.1 µg/mL); MIC (Aspergillus versicolor [25]): 153 µM (≈ 44.8 µg/mL); MIC (Escherichia coli [26]): 229 µM (≈ 67.1 µg/mL); MFC (Aspergillus versicolor [27]): 459 µM (≈ 134 µg/mL); MBC (Bacillus cereus [28]): 306 µM (≈ 89.5 µg/mL); MFC (Aspergillus ochraceus [29]): 459 µM (≈ 134 µg/mL); Ratio (Enterococcus faecalis [34]): 3; MFC (Trichoderma viride [31]): 306 µM (≈ 89.5 µg/mL); MBC (Listeria monocytogenes [32]): 459 µM (≈ 134 µg/mL); MIC (Enterococcus faecalis [33]): 76.4 µM (≈ 22.4 µg/mL) |
| CNc1nc(C)c(C(=O)/C=C/c2ccc(Cl)cc2)s1 | 17 | 170 µM (≈ 49.8 µg/mL) | 340 µM (≈ 99.5 µg/mL) | 342 µM (≈ 100 µg/mL) | 170 µM (≈ 49.8 µg/mL) | 340 µM (≈ 99.5 µg/mL) | 340 µM (≈ 99.5 µg/mL) | 290 µM (≈ 85.1 µg/mL) | 340 µM (≈ 99.5 µg/mL) | 342 µM (≈ 100 µg/mL) | 342 µM (≈ 100 µg/mL) | 342 µM (≈ 100 µg/mL) | 684 µM (≈ 200 µg/mL) | 85.4 µM (≈ 25 µg/mL) | 170 µM (≈ 49.8 µg/mL) | 342 µM (≈ 100 µg/mL) | 340 µM (≈ 99.5 µg/mL) | 170 µM (≈ 49.8 µg/mL) | 256 µM (≈ 75.1 µg/mL) | 513 µM (≈ 150 µg/mL) | MFC (Penicillium ochrochloron [21]): 513 µM (≈ 150 µg/mL); MIC (Aspergillus niger [22]): 170 µM (≈ 49.8 µg/mL); MIC (Listeria monocytogenes [23]): 342 µM (≈ 100 µg/mL); MBC (Micrococcus flavus [24]): 342 µM (≈ 100 µg/mL); MIC (Aspergillus versicolor [25]): 170 µM (≈ 49.8 µg/mL); MIC (Escherichia coli [26]): 290 µM (≈ 85.1 µg/mL); MFC (Aspergillus versicolor [27]): 340 µM (≈ 99.5 µg/mL); MBC (Bacillus cereus [28]): 513 µM (≈ 150 µg/mL); MFC (Aspergillus ochraceus [29]): 513 µM (≈ 150 µg/mL); Ratio (Micrococcus flavus [30]): 3; MFC (Trichoderma viride [31]): 340 µM (≈ 99.5 µg/mL); MBC (Listeria monocytogenes [32]): 513 µM (≈ 150 µg/mL); MIC (Enterococcus faecalis [33]): 171 µM (≈ 50.1 µg/mL) |

From ChEMBL document CHEMBL1782000, “Thiazole-based chalcones as potent antimicrobial agents. Synthesis and biological evaluation” (2011)
